Laboratory results published in the supplement of paper PMC10307832.

Tests used:
Test in all cases: relative viability (nuclei count vs DMSO), 5 days (fraction); higher = more cells survive
[1] = system: EMC-BAC-2
Summary of the method: (§1)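 Nuclei were stained with Hoechst during a one-step fixation (final 0.05% Triton X-100, 1% formaldehyde, 1 ug/ml Hoechst) carried out 5 days after dosing, then counted on 4× images. The cells, lung cancer lines in 1536-well plates, had been dosed by pin tool the day after seeding with one drug alone or a fixed anchor-drug dose plus five library-drug doses (not always all listed) in √10 steps. Relative viability is the nuclei count in treated wells divided by that in vehicle wells, and each value is the median of duplicate plates.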

[2] = system: NCI-H23
Summary of the method: as §1

[3] = system: Calu-6
Summary of the method: as §1

[4] = system: NCI-H1299
Summary of the method: as §1

[5] = system: HCC-78
Summary of the method: as §1

[6] = system: NCI-H1703
Summary of the method: as §1

[7] = system: A549
Summary of the method: as §1

[8] = system: NCI-H1437
Summary of the method: as §1

[9] = system: NCI-H1395
Summary of the method: as §1

[10] = system: EBC-1
Summary of the method: as §1

[11] = system: IA-LM
Summary of the method: as §1

[12] = system: NCI-H661
Summary of the method: as §1

[13] = system: NCI-H1648
Summary of the method: as §1

[14] = system: ABC-1
Summary of the method: as §1

COCC1(CO)C(=O)C2CCN1CC2 (configuration not stated) [PRIMA-1MET] + CC1(C)CCC(c2ccc(Cl)cc2)=C(CN2CCN(c3ccc(C(=O)NS(=O)(=O)c4ccc(N[C@H](CCN5CCOCC5)CSc5ccccc5)c(S(=O)(=O)C(F)(F)F)c4)cc3)CC2)C1 [Navitoclax] (partner 0.5 µM)
relative viability ([1]; first compound 0.2 µM): 1.18
relative viability ([1]; first compound 0.6325 µM): 1.16
relative viability ([1]; first compound 2 µM): 1.13
relative viability ([1]; first compound 6.325 µM): 1.25
relative viability ([1]; first compound 20 µM): 1.15
relative viability ([2]; first compound 0.2 µM): 1.03
relative viability ([2]; first compound 0.6325 µM): 0.668
relative viability ([2]; first compound 2 µM): 0.701
relative viability ([2]; first compound 6.325 µM): 0.811
relative viability ([2]; first compound 20 µM): 0.119
relative viability ([3]; first compound 0.2 µM): 0.97
relative viability ([3]; first compound 0.6325 µM): 0.823
relative viability ([3]; first compound 2 µM): 0.845
relative viability ([3]; first compound 6.325 µM): 0.781
relative viability ([3]; first compound 20 µM): 0.305
relative viability ([4]; first compound 0.2 µM): 1.14
relative viability ([4]; first compound 0.6325 µM): 1.04
relative viability ([4]; first compound 2 µM): 1.05
relative viability ([4]; first compound 6.325 µM): 1.11
relative viability ([4]; first compound 20 µM): 1.04
relative viability ([5]; first compound 0.2 µM): 0.876
relative viability ([5]; first compound 0.6325 µM): 0.77
relative viability ([5]; first compound 6.325 µM): 0.787
relative viability ([5]; first compound 20 µM): 0.0496
relative viability ([6]; first compound 0.2 µM): 1.43
relative viability ([6]; first compound 0.6325 µM): 0.891
relative viability ([6]; first compound 2 µM): 1.18
relative viability ([6]; first compound 6.325 µM): 1.21
relative viability ([6]; first compound 20 µM): 0.0405
relative viability ([7]; first compound 0.2 µM): 1.35
relative viability ([7]; first compound 0.6325 µM): 1.09
relative viability ([7]; first compound 2 µM): 1.23
relative viability ([7]; first compound 6.325 µM): 1.16
relative viability ([7]; first compound 20 µM): 1.08
relative viability ([8]; first compound 0.2 µM): 1.14
relative viability ([8]; first compound 0.6325 µM): 1.05
relative viability ([8]; first compound 2 µM): 1.08
relative viability ([8]; first compound 6.325 µM): 1.14
relative viability ([8]; first compound 20 µM): 0.968
relative viability ([9]; first compound 0.2 µM): 1.17
relative viability ([9]; first compound 0.6325 µM): 1.49
relative viability ([9]; first compound 2 µM): 1.02
relative viability ([9]; first compound 6.325 µM): 1.24
relative viability ([9]; first compound 20 µM): 0.44
relative viability ([10]; first compound 0.2 µM): 0.379
relative viability ([10]; first compound 0.6325 µM): 0.37
relative viability ([10]; first compound 2 µM): 0.427
relative viability ([10]; first compound 6.325 µM): 0.416
relative viability ([10]; first compound 20 µM): 0.151
relative viability ([11]; first compound 0.2 µM): 0.657
relative viability ([11]; first compound 0.6325 µM): 0.769
relative viability ([11]; first compound 2 µM): 0.714
relative viability ([11]; first compound 6.325 µM): 0.949
relative viability ([11]; first compound 20 µM): 0.806

COCC1(CO)C(=O)C2CCN1CC2 (configuration not stated) [PRIMA-1MET] + CC(=O)Nc1cccc(-n2c(=O)n(C3CC3)c(=O)c3c(Nc4ccc(I)cc4F)n(C)c(=O)c(C)c32)c1 [Trametinib] (partner 0.02 µM)
relative viability ([1]; first compound 0.2 µM): 0.637
relative viability ([1]; first compound 0.6325 µM): 0.904
relative viability ([1]; first compound 2 µM): 0.907
relative viability ([1]; first compound 6.325 µM): 0.734
relative viability ([1]; first compound 20 µM): 0.91
relative viability ([2]; first compound 0.2 µM): 0.281
relative viability ([2]; first compound 0.6325 µM): 0.37
relative viability ([2]; first compound 2 µM): 0.273
relative viability ([2]; first compound 6.325 µM): 0.328
relative viability ([2]; first compound 20 µM): 0.112
relative viability ([5]; first compound 0.2 µM): 0.676
relative viability ([5]; first compound 0.6325 µM): 0.708
relative viability ([5]; first compound 2 µM): 0.478
relative viability ([5]; first compound 6.325 µM): 0.596
relative viability ([5]; first compound 20 µM): 0.331
relative viability ([8]; first compound 0.2 µM): 0.631
relative viability ([8]; first compound 0.6325 µM): 0.525
relative viability ([8]; first compound 2 µM): 0.449
relative viability ([8]; first compound 6.325 µM): 0.546
relative viability ([8]; first compound 20 µM): 0.479
relative viability ([12]; first compound 0.2 µM): 0.506
relative viability ([12]; first compound 0.6325 µM): 0.492
relative viability ([12]; first compound 2 µM): 0.547
relative viability ([12]; first compound 6.325 µM): 0.552
relative viability ([12]; first compound 20 µM): 0.503
relative viability ([9]; first compound 0.2 µM): 1.14
relative viability ([9]; first compound 2 µM): 0.979
relative viability ([9]; first compound 6.325 µM): 1.02
relative viability ([9]; first compound 20 µM): 1.05
relative viability ([13]; first compound 0.2 µM): 0.396
relative viability ([13]; first compound 2 µM): 0.445
relative viability ([13]; first compound 20 µM): 0.553

COCC1(CO)C(=O)C2CCN1CC2 (configuration not stated) [PRIMA-1MET] + CC(=O)c1c(C)c2cnc(Nc3ccc(N4CCNCC4)cn3)nc2n(C2CCCC2)c1=O [Palbociclib] (partner 0.5 µM)
relative viability ([14]; first compound 0.2 µM): 0.984
relative viability ([14]; first compound 2 µM): 0.482
relative viability ([14]; first compound 6.325 µM): 0.552
relative viability ([14]; first compound 20 µM): 0.181
relative viability ([1]; first compound 0.2 µM): 0.586
relative viability ([1]; first compound 0.6325 µM): 0.466
relative viability ([1]; first compound 2 µM): 0.478
relative viability ([1]; first compound 6.325 µM): 0.503
relative viability ([1]; first compound 20 µM): 0.499
relative viability ([2]; first compound 0.2 µM): 0.469
relative viability ([2]; first compound 0.6325 µM): 0.351
relative viability ([2]; first compound 2 µM): 0.416
relative viability ([2]; first compound 6.325 µM): 0.538
relative viability ([2]; first compound 20 µM): 0.121
relative viability ([5]; first compound 0.2 µM): 0.449
relative viability ([5]; first compound 0.6325 µM): 0.507
relative viability ([5]; first compound 2 µM): 0.397
relative viability ([5]; first compound 6.325 µM): 0.446
relative viability ([5]; first compound 20 µM): 0.427
relative viability ([8]; first compound 0.2 µM): 0.322
relative viability ([8]; first compound 0.6325 µM): 0.313
relative viability ([8]; first compound 2 µM): 0.306
relative viability ([8]; first compound 6.325 µM): 0.324
relative viability ([8]; first compound 20 µM): 0.299
relative viability ([12]; first compound 0.2 µM): 0.418
relative viability ([12]; first compound 0.6325 µM): 0.391
relative viability ([12]; first compound 2 µM): 0.414
relative viability ([12]; first compound 6.325 µM): 0.423
relative viability ([12]; first compound 20 µM): 0.446
relative viability ([9]; first compound 0.2 µM): 0.665
relative viability ([9]; first compound 2 µM): 0.641
relative viability ([9]; first compound 6.325 µM): 0.656
relative viability ([9]; first compound 20 µM): 0.578
relative viability ([13]; first compound 0.2 µM): 0.251
relative viability ([13]; first compound 2 µM): 0.283
relative viability ([13]; first compound 20 µM): 0.283
